From US11207291B2, “Antimicrobial compositions comprising cannabinoids and methods of using the same” (Graphium Biosciences, Inc., priority 2017, dated 2021)
Converted amounts (≈) assume the structure as drawn. Like-named read-outs stand apart in the source and are kept apart here.

What was measured:
B. fragilis ATCC 25285 [1] = assay: MIC/MBC testing (Example 5); format: cell-based; conditions: Bacteroides fragilis, ATCC25285
Clostridium difficile [2] = assay: Broth microdilution MIC, anaerobic bacteria (Example 4); format: cell-based; conditions: Clostridioides difficile
C. difficile = assay: MIC/MBC testing (Example 5); format: cell-based; conditions: for MBC:MIC: ratios of 1-4 are indicative of bactericidal activity
Bacteroides fragilis [3] = assay: Broth microdilution MIC, anaerobic bacteria (Example 1); format: cell-based; conditions: Bacteroides fragilis, ATCC5285
B. fragilis ATCC 25285 [4] = conditions: Example 5 control agents table; cited from earlier work
Bifidobacterium bifidum [5] = assay: Broth microdilution MIC, anaerobic bacteria (Example 1); format: cell-based; conditions: Bifidobacterium bifidum; Example 1; isolate MMX 3965; read-out: MIC
Bifidobacterium longum [6] = assay: as above; format: cell-based; conditions: Bifidobacterium longum; Example 1; isolate MMX 3968; read-out: MIC
Lactobacillus jensenii [7] = assay: Broth microdilution MIC, anaerobic bacteria (Example 4); format: cell-based; conditions: isolate MMX 4149
Bifidobacterium longum [8] = assay: as above; format: cell-based; conditions: isolate MMX 3968
B. bifidum MMX 3965 = assay: MIC/MBC testing (Example 5); format: cell-based
B. longum MMX 3968 = assay: MIC/MBC testing (Example 5); format: cell-based
Lactobacillus jensenii [9] = assay: Broth microdilution MIC, anaerobic bacteria (Example 1); format: cell-based; conditions: Lactobacillus jensenii; Example 1; isolate MMX 4149; read-out: MIC
Bifidobacterium bifidum [10] = assay: Broth microdilution MIC, anaerobic bacteria (Example 4); format: cell-based; conditions: isolate MMX 3965
Lactobacillus crispatus = assay: Broth microdilution MIC, anaerobic bacteria (Example 1); format: cell-based; conditions: Lactobacillus crispatus; Example 1; isolate MMX 4147; read-out: MIC
Clostridium difficile [11] = assay: as above; format: cell-based; conditions: Clostridioides difficile
[12] = tested on: evaluated yeast and fungal isolates; assay: Broth microdilution MIC, summary (Example 4); format: cell-based
strains tested = assay: MIC/MBC testing, summary (Example 5); format: cell-based
[13] = tested on: Klebsiella pneumoniae (KPC-2); assay: microbe, parasite or virus in culture; format: cell-based
[14] = tested on: Enterococcus faecalis (VSE); assay: Broth microdilution MIC, aerobic bacteria (Example 4); format: cell-based; conditions: ATCC29212
[15] = tested on: Enterococcus faecalis (VRE); assay: microbe, parasite or virus in culture; format: cell-based
S. aureus MMX 757 = assay: MIC/MBC testing (Example 5); format: cell-based
S. pneumoniae ATCC 49619 = assay: MIC/MBC testing (Example 5); format: cell-based; conditions: Streptococcus pneumoniae, ATCC49619
Streptococcus pneumoniae = assay: Broth microdilution MIC, aerobic bacteria (Example 4); format: cell-based; conditions: ATCC49619
S. pyogenes MMX 404 = assay: MIC/MBC testing (Example 5); format: cell-based
E. faecalis ATCC 29212 = assay: MIC/MBC testing (Example 5); format: cell-based
[16] = tested on: Staphylococcus aureus (MRSA); assay: microbe, parasite or virus in culture; format: cell-based
gram-negative aerobes = assay: Broth microdilution MIC, summary (Example 4); format: cell-based; conditions: tested alone
Aspergillus fumigatus = assay: Broth microdilution MIC, fungi (Example 4); format: cell-based; conditions: Aspergillus fumigatus, Example 4, isolate MMX 5280 (MYA-3626)
Pseudomonas aeruginosa = assay: Broth microdilution MIC, aerobic bacteria (Example 4); format: cell-based
Escherichia coli = assay: as above; format: cell-based; conditions: ATCC25922
Candida parapsilosis = assay: Broth microdilution MIC, fungi (Example 4); format: cell-based; conditions: for concentration at which 50% inhibition observed relative to the growth control: value in parenthesis; for MIC: Lodderomyces parapsilosis
[17] = Compound precipitation in uninoculated solubility controls (Example 4); format: physicochemical; design: key to precipitation observed (type): NA: not applicable (no precipitation observed); TRP: trace precipitate; DCP: distinct precipitate
Method: Un-inoculated solubility control plates for each test media and drug were incubated in parallel with test plates and observed for evidence of drug precipitation. MICs were read where visible growth of the organism was inhibited.

Streptococcus pyogenes = assay: Broth microdilution MIC, aerobic bacteria (Example 4); format: cell-based
E. faecalis MMX 848 = assay: MIC/MBC testing (Example 5); format: cell-based
Acinetobacter baumannii = assay: Broth microdilution MIC, aerobic bacteria (Example 4); format: cell-based
[18] = tested on: Staphylococcus aureus (MSSA); assay: as above; format: cell-based; conditions: ATCC 29213 / MSSA
S. aureus ATCC 29213 = assay: MIC/MBC testing (Example 5); format: cell-based
E. coli ATCC 25922 = assay: MIC/MBC testing (Example 5); format: cell-based; conditions: Escherichia coli, ATCC25922
Bacteroides fragilis [19] = assay: Broth microdilution MIC, anaerobic bacteria (Example 4); format: cell-based; conditions: ATCC25285, isolate MMX 123 (ATCC 25285)
[20] = ATCC700057, Example 4, isolate MMX 4381 (ATCC 700057)
[21] = Clostridioides difficile, ATCC700057, Example 5, ATCC 700057
[22] = Clostridioides difficile, Example 5, MMX 8330
[23] = Clostridioides difficile, Example 5, MMX 8333
[24] = ratios of 1-4 are indicative of bactericidal activity
[25] = Enterococcus faecalis, ATCC29212
[26] = Bifidobacterium bifidum, MMX3965
[27] = Bifidobacterium longum, MMX3968
[28] = Staphylococcus aureus, ATCC29213

SMILES: Cc1ncc([N+](=O)[O-])n1CCO [Metronidazole]
- MIC (B. fragilis ATCC 25285 [1]; Example 5, read-out: MIC): 0.5 µg/mL (≈ 2.92 µM)
- MIC (Clostridium difficile [2]; [20]): 0.25 µg/mL (≈ 1.46 µM)
- MIC (Clostridium difficile [2]; Example 4, isolate MMX 8330): 0.25 µg/mL (≈ 1.46 µM)
- MIC (Clostridium difficile [2]; Example 4, isolate MMX 8333): 2 µg/mL (≈ 11.7 µM)
- MIC (C. difficile; [21]): 0.12 µg/mL (≈ 0.701 µM)
- MIC (C. difficile; Clostridioides difficile, Example 5, MMX 8330, read-out: MIC): 0.5 µg/mL (≈ 2.92 µM)
- MIC (C. difficile; Example 5, MMX 8333): 0.5 µg/mL (≈ 2.92 µM)
- MIC (Bacteroides fragilis [3]): 0.5 µg/mL (≈ 2.92 µM)
- CLSI QC range (MIC) (B. fragilis ATCC 25285 [4]): (0.25-2)^1 μg/mL
- MIC (Bifidobacterium bifidum [5]): 1 µg/mL (≈ 5.84 µM)
- MIC (Bifidobacterium longum [6]): 8 µg/mL (≈ 46.7 µM)
- MIC (Lactobacillus jensenii [7]): > 32 µg/mL
- MIC (Bifidobacterium longum [8]): 8 µg/mL (≈ 46.7 µM)
- MIC (B. bifidum MMX 3965; Bifidobacterium bifidum, MMX3965, Example 5, read-out: MIC): 1 µg/mL (≈ 5.84 µM)
- MIC (B. longum MMX 3968; Bifidobacterium longum, MMX3968, Example 5, read-out: MIC): 8 µg/mL (≈ 46.7 µM)
- MIC (Lactobacillus jensenii [9]): > 32 µg/mL
- MIC (Bifidobacterium bifidum [10]): 2 µg/mL (≈ 11.7 µM)
- MIC (Lactobacillus crispatus): > 32 µg/mL
- MIC (Clostridium difficile [11]; ATCC00057, Example 1, isolate MMX 4381 (ATCC 00057)): 0.12 µg/mL (≈ 0.701 µM)
- MIC (Clostridium difficile [11]; Example 1, isolate MMX 8330, read-out: MIC): 0.12 µg/mL (≈ 0.701 µM)

SMILES: CCCCCc1cc(O)c2c(c1)OC(C)(C)[C@@H]1CCC(C)=C[C@@H]21 [THC, tetrahydrocannabinol]
- MIC (B. fragilis ATCC 25285 [1]): > 256 µg/mL
- activity against yeast and fungal isolates [12]: Neither THC nor CBD were active
- MIC (Clostridium difficile [2]; [20]): 32 µg/mL (≈ 102 µM)
- MIC (Clostridium difficile [2]; Example 4, isolate MMX 8330): 32 µg/mL (≈ 102 µM)
- MIC (Clostridium difficile [2]; Example 4, isolate MMX 8333): 32 µg/mL (≈ 102 µM)
- MBC:MIC (C. difficile; ATCC 700057): 2
- MBC (C. difficile; [21]): 128 µg/mL (≈ 407 µM)
- MIC (C. difficile; [21]): 64 µg/mL (≈ 204 µM)
- MBC (C. difficile; [22]): 64 µg/mL (≈ 204 µM)
- MIC (C. difficile; [22]): 64 µg/mL (≈ 204 µM)
- MBC (C. difficile; [23]): 128 µg/mL (≈ 407 µM)
- MIC (C. difficile; [23]): 64 µg/mL (≈ 204 µM)
- MBC:MIC (C. difficile; MMX 8330): 1
- MBC:MIC (C. difficile; MMX 8333): 2
- biocidal activity against the strains tested (strains tested): overall biocidal
- MIC [13]: > 128 µg/mL
- MIC [14]: 2 µg/mL (≈ 6.36 µM)
- MIC [15]: 2 µg/mL (≈ 6.36 µM)
- MBC (S. aureus MMX 757; Staphylococcus aureus, MMX757): 32 µg/mL (≈ 102 µM)
- MIC (S. aureus MMX 757; Staphylococcus aureus, MMX757): 4 µg/mL (≈ 12.7 µM)
- MBC:MIC (S. aureus MMX 757; [24]): 8
- MIC (S. pneumoniae ATCC 49619): 1 µg/mL (≈ 3.18 µM)
- MIC (Streptococcus pneumoniae): 1 µg/mL (≈ 3.18 µM)
- MBC (S. pyogenes MMX 404; Streptococcus pyogenes, MMX404): 32 µg/mL (≈ 102 µM)
- MIC (S. pyogenes MMX 404; Streptococcus pyogenes, MMX404): 32 µg/mL (≈ 102 µM)
- MBC:MIC (S. pyogenes MMX 404; [24]): 1
- MBC (E. faecalis ATCC 29212; [25]): 8 µg/mL (≈ 25.4 µM)
- MIC (E. faecalis ATCC 29212; [25]): 2 µg/mL (≈ 6.36 µM)
- MBC:MIC (E. faecalis ATCC 29212; [24]): 4
- MIC (Lactobacillus jensenii [7]): 128 µg/mL (≈ 407 µM)
- MIC [16]: 2 µg/mL (≈ 6.36 µM)
- activity against Gram-negative aerobes (gram-negative aerobes): inactive
- MIC (Aspergillus fumigatus; 24 hr, read-out: MIC at 24 hr): > 128 µg/mL
- MIC (Aspergillus fumigatus; 48 hr, read-out: MIC at 48 hr): > 128 µg/mL
- MIC (Bifidobacterium longum [8]): 32 µg/mL (≈ 102 µM)
- MIC (Pseudomonas aeruginosa): > 128 µg/mL
- MIC (Escherichia coli): > 128 µg/mL
- concentration at which 50% inhibition observed relative to the growth control (Candida parapsilosis; Example 4, 24 hr): 4 µg/mL
- concentration at which 50% inhibition observed relative to the growth control (Candida parapsilosis; Example 4, 48 hr): 4 µg/mL
- MIC (Candida parapsilosis; ATCC22019, 24 h, read-out: MIC at 24 hr): > 128 µg/mL
- MIC (Candida parapsilosis; ATCC22019, Example 4, 48 hr, isolate MMX 2323 (ATCC 22019), read-out: MIC at 48 hr): > 128 µg/mL
- MBC (B. bifidum MMX 3965; [26]): 128 µg/mL (≈ 407 µM)
- MIC (B. bifidum MMX 3965; [26]): 32 µg/mL (≈ 102 µM)
- MBC:MIC (B. bifidum MMX 3965; [24]): 4
- MBC (B. longum MMX 3968; [27]): > 256 µg/mL
- MIC (B. longum MMX 3968; [27]): 32 µg/mL (≈ 102 µM)
- MBC:MIC (B. longum MMX 3968; [24]): >8
- concentration at which precipitation was observed ([17]; Brucella Broth): 128 µg/mL
- precipitation observed (type) ([17]; Brucella Broth): DCP
- precipitation observed (type) ([17]; MHB II): DCP
- precipitation observed (type) ([17]; MHB II with Blood): none
- precipitation observed (type) ([17]; RPMI): TRP
- MIC (Streptococcus pyogenes): 16 µg/mL (≈ 50.9 µM)
- MBC (E. faecalis MMX 848; Enterococcus faecalis, MMX848): 4 µg/mL (≈ 12.7 µM)
- MIC (E. faecalis MMX 848; Enterococcus faecalis, MMX848): 2 µg/mL (≈ 6.36 µM)
- MBC:MIC (E. faecalis MMX 848; [24]): 2
- MIC (Bifidobacterium bifidum [10]): 16 µg/mL (≈ 50.9 µM)
- MIC (Acinetobacter baumannii): > 128 µg/mL
- MIC [18]: 2 µg/mL (≈ 6.36 µM)
- MBC (S. aureus ATCC 29213; [28]): 4 µg/mL (≈ 12.7 µM)
- MIC (S. aureus ATCC 29213; [28]): 4 µg/mL (≈ 12.7 µM)
- MBC:MIC (S. aureus ATCC 29213; [24]): 1
- MIC (E. coli ATCC 25922): > 256 µg/mL
- MIC (Bacteroides fragilis [19]): > 128 µg/mL
